≈ marks a conversion by molar mass, not a printed value.
Columns and labels:
[1] = test system: Schistosoma mansoni 21-day-old schistosomules; assay: Effect on 21-day-old schistosomules in infected mice; type: in vivo; settings: single 200 mg/kg per os, 21-day-old schistosomules; for % reduction of schistosomule growth at day 21 after per os application of 200 mg/kg, FWR (%): female worm reduction rate; for % reduction of schistosomule growth at day 21 after per os application of 200 mg/kg, TWR (%): total worm reduction rate
Procedure: Mice were infected with 100 Schistosoma mansoni cercariae on day 21 post-treatment. Each group was treated per os with trioxolanes at a single dose of 200 mg/kg. […] All groups were killed 4 weeks after treatment and the liver and intestine were removed and separated. The liver and intestine were compressed and alive male and female worms could be seen and counted. The effect of the compounds was evaluated by mean total and female worm burden.

[2] = test system: Schistosoma mansoni adult worms (49-day-old); assay: Effect on adult schistosomes (49-day-old) in infected mice; type: in vivo; settings: single 400 mg/kg per os; for % reduction of adult worms growth at day 49 after per os application of 400 mg/kg, TWR (%): 49-day-old adults, total worm reduction rate; for Adult worms day 49, per os 400 mg/kg, DEAD WORM (%): percentage of dead worm in the liver
Procedure: Mice were infected with 100 Schistosoma mansoni cercariae on day 49 post-treatment. Each group was treated per os with OZ compounds at single doses of 200, 400, and 600 mg/kg. Untreated mice served as the control. All groups were killed 4 weeks after treatment and the liver and intestine were removed and separated. The liver and intestine were compressed and alive male and female worms could be seen and counted.

[3] = test system: chloroquine-sensitive NF54 strain of P. falciparum; assay: In vitro antimalarial semiautomated microdilution assay ([3H]-hypoxanthine incorporation), NF54 strain; type: cell-based, Plasmodium falciparum
Procedure, shortened: (§1)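 Logit regression analysis yields the fifty percent inhibitory concentration. Compounds are tested by semiautomated microdilution on intraerythrocytic parasites drawn from asynchronous stock cultures, measuring [3H]-hypoxanthine incorporation.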

[4] = test system: ANKA strain of P. berghei; assay: Single dose STI in vivo screen in infected mice; parameters: species or system Plasmodium berghei; settings: for Survival (days) 10 mg/kg po: single 10 mg/kg po in 3% ethanol and 7% Tween 80; for Survival (days) 10 mg/kg po / Survival (days) 10 mg/kg SSV po / Survival (days) 10 mg/kg sc: untreated 6-7 days; for Activity (%) 10 mg/kg po: single 10 mg/kg po in 3% ethanol and 7% Tween 80 on day 1 post-infection; for Activity (%) 10 mg/kg po / Activity (%) 10 mg/kg SSV po / Activity (%) 10 mg/kg sc: percent reduction in parasitemia on day 3; for Survival (days) 10 mg/kg SSV po: single 10 mg/kg po in SSV; for Activity (%) 10 mg/kg SSV po: single 10 mg/kg po in standard suspending vehicle (SSV) on day 1 post-infection; for Survival (days) 10 mg/kg sc: single 10 mg/kg sc in 3% ethanol and 7% Tween 80; for Activity (%) 10 mg/kg sc: single 10 mg/kg sc in 3% ethanol and 7% Tween 80 on day 1 post-infection
[5] = test system: chloroquine-resistant K1 strain of P. falciparum; assay: In vitro antimalarial semiautomated microdilution assay ([3H]-hypoxanthine incorporation), K1 strain; type: cell-based, Plasmodium falciparum
Procedure, shortened: as §1

| SMILES | % reduction of schistosomule growth at day 21 after per os application of 200 mg/kg, FWR (%) [1] | % reduction of schistosomule growth at day 21 after per os application of 200 mg/kg, TWR (%) [1] | % reduction of adult worms growth at day 49 after per os application of 400 mg/kg, TWR (%) [2] | Adult worms day 49, per os 400 mg/kg, DEAD WORM (%) [2] | other results |
| --- | --- | --- | --- | --- | --- |
| O=C1CC2CC3(CC2C1)OOC1(O3)C2CC3CC(C2)CC1C3 (centres unmarked) [OZ12] | 79% | 78% | 14% | 0% | – |
| O=C(O)C1CCC2(CC1)OOC1(O2)C2CC3CC(C2)CC1C3 (centres unmarked) [OZ71] | 85% | 91% | 0% | – | Adult worms day 49, per os 400 mg/kg, DEAD WORM (%) ([2]; listed as OZ 71): 16% |
| CCOC(=O)N1CCC2(CC1)OOC1(O2)C2CC3CC(C2)CC1C3 (centres unmarked) [OZ23] | 84% | 90% | 0% | 4% | – |
| O=C1C2C3CC4C5C3C1C5C1(OOC3(O1)C1CC5CC(C1)CC3C5)C42 (centres unmarked) [OZ14] | 0% | 7% | 0/0% | 0/0% | – |
| c1ccc(CNC2CCC3(CC2)OOC2(O3)C3CC4CC(C3)CC2C4)cc1 (centres unmarked) [OZ160] | 0% | 0% | – | – | IC50 ([3]; Plasmodium falciparum, NF54, 72 h, read-out: IC50 (ng/ml) NF54, chloroquine-sensitive NF54 strain, 72 h incubation): 0.87 ng/mL (≈ 2.35 nM); Survival (days) 10 mg/kg po [4]: 6.3 days; Activity (%) 10 mg/kg po [4]: 45%; Survival (days) 10 mg/kg SSV po [4]: 6.7 days; Activity (%) 10 mg/kg SSV po [4]: 43%; Survival (days) 10 mg/kg sc [4]: 12.0 days; Activity (%) 10 mg/kg sc [4]: 99.94%; IC50 ([5]; Plasmodium falciparum, K1, 72 h, read-out: IC50 (ng/ml) K1, chloroquine-resistant K1 strain, 72 h incubation): 0.7 ng/mL (≈ 1.89 nM) |
| OC12CC3CC(C1)C1(OOC4(CCC5(CC4)OCCO5)O1)C(C3)C2 (centres unmarked) [OZ152, 5-Hydroxyadamantane-2-spiro-3′-1′,2′,4′,9′,12′-pentaoxadispiro[4.2.4.2]tetradecane] | 11% | 19% | – | – | IC50 (ng/ml) NF54 ([3]; chloroquine-sensitive NF54 strain, 72 h incubation): 7.2 ng/mL (≈ 21.3 nM); Survival (days) 10 mg/kg po [4]: 6.3 days; Activity (%) 10 mg/kg po ([4]; 10 mg/kg): 0%; Survival (days) 10 mg/kg SSV po ([4]; 10 mg/kg): 6.7 days; Activity (%) 10 mg/kg SSV po ([4]; 10 mg/kg): 12%; Survival (days) 10 mg/kg sc ([4]; 10 mg/kg): 6.7 days; Activity (%) 10 mg/kg sc ([4]; 10 mg/kg): 22%; IC50 (ng/ml) K1 ([5]; chloroquine-resistant K1 strain, 72 h incubation): 3.2 ng/mL (≈ 9.46 nM) |
| CC1(C)COC2(CCC3(CC2)OOC2(CC(C)(C)CC(C)(C)C2)O3)OC1 [OZ36] | 12% | 16% | 0/0% | 0/0% | – |
| OC1CCC2(CC1)OOC1(O2)C2CC3CC(C2)CC1C3 (centres unmarked) [OZ32] | 70% | 73% | 27% | 28% | – |

— US6825230B2, “Spiro and dispiro 1,2,4-trixolane antimalarials” (Medicines for Malaria Venture MMV, priority 2002, dated 2004)
